Assay results reported in patent US20210330611A1, “THERAPY FOR NEUROLOGICAL DISEASES/DISORDERS” (priority 2020, published 2021).
Structures can show the parent of a compound that is named as a salt. Where two headings read alike, the source gives them in different places.

Experiments:
[1] = system: fibrin-induced microglia activation; assay: Image-based assay of fibrin-induced microglia activation (HTS and dose response); format: cell-based, rat; details: for IC50 / inhibition at 10 µM: Rattus norvegicus, Microglia; for inhibition at 10 µM: primary microglia HTS, fibrin stimulation, increased cell size (>800 μm^2) as marker of activation, read-out: Fibrin % inhibition
in vitro [2] = details: rat
[3] = system: LPS-induced microglia activation; assay: Image-based assay of LPS-induced microglia activation (HTS and dose response); format: cell-based, rat; details: Rattus norvegicus, Microglia; for inhibition at 10 µM: primary microglia HTS, LPS stimulation, increased cell size (>800 μm^2) as marker of activation, read-out: LPS % inhibition
in vitro [4] = details: rat, Cell Toxicity IC50 (uM) [cFib assay]
primary rat microglia [5] = assay: Cell toxicity (dead cells, size <150 μm2) in LPS assay; details: for LPS % cell toxicity: primary microglia HTS, LPS stimulation, decreased size (<150 μm^2) as marker of toxicity; for IC50: read-out: Cell Toxicity IC50 (uM) [LPS assay], LPS assay
[6] = system: fibrin- and LPS-induced microglia activation; assay: cells; format: cell-based, rat; details: for inhibition at 10 µM: Rattus norvegicus
primary rat microglia [7] = assay: Cell toxicity (dead cells, size <150 μm2) in coated fibrin (cFib) assay; details: primary microglia HTS, fibrin stimulation; decreased size (<150 μm^2) as marker of toxicity;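 for Fibrin % cell toxicity: share of dead cells sized under 150 µm2 at 10 µM in fibrin-stimulated microglia HTS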
[8] = 48 h, Table 1, dose response 0.001-20 μM, triplicates, primary rat microglia, 48 h, read-out: Fibrin IC50
[9] = Table 3, read-out: Fibrin IC50 (uM) (Suppl. Table 7)
[10] = dose response, fibrin-induced microglia activation, read-out: Fibrin IC50
[11] = fibrin-induced microglia activation, dose response, read-out: Fibrin IC50 (uM) (Suppl. Table 7)
[12] = 48 h, Table 1, dose response 0.001-20 μM, triplicates, primary rat microglia, 48 h, read-out: LPS IC50
[13] = LPS-induced microglia activation, dose response, read-out: LPS IC50 (uM) (Suppl. Table 7)
[14] = Table 3, read-out: LPS IC50 (uM) (Suppl. Table 7)
[15] = dose response, LPS-induced microglia activation, read-out: LPS IC50
[16] = HTS of 1907 compounds, quadrant by fibrin and LPS inhibition
[17] = Microglia, Table 3, read-out: Cherry-picked Hit (Suppl. Table 7)
[18] = Microglia, HTS hit classification, read-out: Hit
[19] = quadrant by fibrin and LPS inhibition in HTS of 1907 compounds
[20] = hit classification in microglia HTS, read-out: Cherry-picked Hit (Suppl. Table 7)

Row | SMILES | IC50 [1, 8] | IC50 [1, 9] | IC50 [1, 10] | IC50 [1, 11] | inhibition at 10 µM [1] | IC50 (in vitro [2]) | IC50 [3, 12] | inhibition at 10 µM ([3]; 48 h) | IC50 [3, 13] | IC50 [3, 15] | IC50 (in vitro [4]; Table 3) | IC50 (in vitro [4]; cFib assay) | LPS % cell toxicity (primary rat microglia [5]) | IC50 (primary rat microglia [5]) | Quadrant (FIG. 5b) [6, 16] | inhibition at 10 µM [6, 17] | inhibition at 10 µM [6, 18] | Quadrant (FIG. 5b) ([6]; Table 1, screen at 10 μM) | Quadrant (FIG. 5b) [6, 19] | Fibrin % cell toxicity (primary rat microglia [7]) | also measured
1 | c1ccc2c(c1)OCC(C1=NCCN1)O2 (centres unmarked) [Idazoxan hydrochloride, reference compound] | 0.4 µM | 0.4 µM | 0.4 µM | 0.4 µM | 70% | > 20 µM | 2 µM | 14% | 2 µM | 2 µM | > 20 µM | > 20 µM | 0% | > 20 µM | Q3 | > 50% | > 50% | Q3 | Q3 | 2% | Fibrin Selectivity [1]: 5; Fibrin Selectivity (LOG10) [1]: 0.69; IC50 [3, 14]: 2 µM; Quadrant (FIG. 5b) ([6]; Table 3, screen at 10 μM): Q3
2 | CC(C)C(=O)c1c(C(C)C)nn2ccccc12 [Ibudilast, reference compound] | > 20 µM | – | > 20 µM | > 20 µM | 75% | > 20 µM | > 20 µM | 57% | > 20 µM | > 20 µM | – | > 20 µM | 1% | – | Q2 | – | > 50% | Q2 | Q2 | 1% | inhibition at 10 µM [6, 20]: > 50%
3 | COC(=O)Nc1nc2ccc(Sc3ccccc3)cc2[nH]1 [Fenbendazole, reference compound] | 3 µM | – | 3 µM | 3 µM | 75% | > 20 µM | 4 µM | 10% | 4 µM | 4 µM | – | > 20 µM | 1% | – | Q3 | – | > 50% | Q3 | Q3 | 1% | inhibition at 10 µM [6, 20]: > 50%
4 | CC(=O)OCC(=O)[C@@]1(O)CC[C@H]2[C@@H]3CCC4=CC(=O)C=C[C@]4(C)[C@@]3(Cl)[C@@H](Cl)C[C@@]21C [Dichlorisone acetate, reference compound] | 0.03 µM | 0.03 µM | 0.03 µM | 0.03 µM | 108% | > 20 µM | 4 µM | 74% | 4 µM | 4 µM | > 20 µM | > 20 µM | 1% | > 20 µM | Q2 | > 50% | > 50% | Q2 | Q2 | 3% | Fibrin Selectivity [1]: 169; Fibrin Selectivity (LOG10) [1]: 2.23; IC50 ([1]; Table 6, read-out: Fibrin IC50 (uM) (Suppl. Table 7)): 0.03 µM; IC50 [3, 14]: 4 µM; IC50 ([3]; Table 6, read-out: LPS IC50 (uM) (Suppl. Table 7)): 4 µM; IC50 (in vitro [4]; cFib assay, Table 6): > 20 µM; IC50 (primary rat microglia [5]; Table 6): > 20 µM; Quadrant (FIG. 5b) ([6]; Table 3, screen at 10 μM): Q2; Quadrant (FIG. 5b) ([6]; microglia HTS, Table 6): Q2
5 | Cc1cccc(N(C)C(=S)Oc2ccc3ccccc3c2)c1 [Tolnaftate, reference compound] | 2 µM | 2 µM | 2 µM | 2 µM | 76% | > 20 µM | – | 60% | – | – | > 20 µM | > 20 µM | 1% | > 20 µM | Q2 | > 50% | > 50% | Q2 | Q2 | 1% | Quadrant (FIG. 5b) ([6]; Table 3, screen at 10 μM): Q2
6 | COc1c(C)c2c(c(O)c1C/C=C(\C)CCC(=O)O)C(=O)OC2 [Mycophenolic acid, reference compound] | 1 µM | – | 1 µM | 1 µM | 94% | > 20 µM | 1 µM | 91% | 1 µM | 1 µM | – | > 20 µM | 2% | – | Q2 | – | > 50% | Q2 | Q2 | 1% | inhibition at 10 µM [6, 20]: > 50%; Quadrant (FIG. 5b) ([6]; Table 2, screen at 10 μM): Q2; Activity ([6]; Table 7, fib = fibrin, LPS, tox = toxicity): fib/LPS
7 | CCCCC(=O)O[C@]1(C(=O)CO)CC[C@H]2[C@@H]3CCC4=CC(=O)CC[C@]4(C)[C@H]3[C@@H](O)C[C@@]21C [Hydrocortisone valerate, reference compound] | 0.05 µM | 0.05 µM | 0.05 µM | 0.05 µM | 95% | > 20 µM | 1 µM | 73% | 1 µM | 1 µM | > 20 µM | > 20 µM | 1% | > 20 µM | Q2 | > 50% | > 50% | Q2 | Q2 | 1% | Fibrin Selectivity [1]: 28; Fibrin Selectivity (LOG10) [1]: 1.45; IC50 [3, 14]: 1 µM; Quadrant (FIG. 5b) ([6]; Table 3, screen at 10 μM): Q2
8 | Cc1cccc(C)c1N=C1NCCCS1 [Xylazine hydrochloride, reference compound] | 2 µM | 2 µM | 2 µM | 2 µM | 102% | > 20 µM | 8 µM | 72% | 8 µM | 8 µM | > 20 µM | > 20 µM | 2% | > 20 µM | Q2 | > 50% | > 50% | Q2 | Q2 | 1% | Fibrin Selectivity [1]: 5; Fibrin Selectivity (LOG10) [1]: 0.72; IC50 [3, 14]: 8 µM; Quadrant (FIG. 5b) ([6]; Table 3, screen at 10 μM): Q2
9 | CNC(C)(C)Cc1ccccc1 [Mephentermine sulfate, reference compound] | > 20 µM | – | > 20 µM | > 20 µM | 60% | > 20 µM | > 20 µM | 31% | > 20 µM | > 20 µM | – | > 20 µM | 1% | – | Q3 | – | > 50% | Q3 | Q3 | 2% | inhibition at 10 µM [6, 20]: > 50%
10 | O=C(OOC(=O)c1ccccc1)c1ccccc1 [Benzoyl peroxide, reference compound] | 20 µM | – | 20 µM | 20 µM | 75% | > 20 µM | > 20 µM | 82% | > 20 µM | > 20 µM | – | > 20 µM | 2% | – | Q2 | – | > 50% | Q2 | Q2 | 1% | inhibition at 10 µM [6, 20]: > 50%
11 | Cc1ccc(S(=O)(=O)NC(=O)NN2CCCCCC2)cc1 [Tolazamide, reference compound] | 12 µM | 12 µM | 12 µM | 12 µM | 88% | > 20 µM | > 20 µM | 42% | > 20 µM | > 20 µM | > 20 µM | > 20 µM | 0% | > 20 µM | Q3 | > 50% | > 50% | Q3 | Q3 | 1% | Fibrin Selectivity [1]: 2; Fibrin Selectivity (LOG10) [1]: 0.23; IC50 [3, 14]: > 20 µM; Quadrant (FIG. 5b) ([6]; Table 3, screen at 10 μM): Q3
